Experimental data published in paper PMC3702004, “Comparison of Intake and Systemic Relative Effect Potencies of Dioxin-like Compounds in Female Mice after a Single Oral Dose” (Environmental Health Perspectives, 2013).

test system: hepatic CYP1A1 activity (ethoxyresorufin-O-deethylase, EROD); experiment: Hepatic EROD activity in hepatic microsomal fractions after single oral dose; format: in vivo, female C57BL/6 mice; details: dose metric Adm dose; 3 days after single oral dose
Description: (§1) Animals. Eight-week-old female C57BL/6 mice (Harlan laboratories, Venray, the Netherlands) were randomly assigned to treatment groups (six animals per group) and allowed to acclimate for 1.5 weeks. The animals were housed in groups in standard cages and conditions (23 ± 2°C, 50–60% relative humidity, 12-hr dark/light cycle) with free access to food and water. Mice received a single dose of test compound by oral gavage at a dosing volume of 10 mL/kg body weight (BW). Mice treated with corn oil vehicle (10 mL/kg BW) served as controls. For each congener, five different doses were administered, ranging from 0.5–100 μg/kg BW (TCDD) to 5,000–500,000 µg/kg BW (PCB-153). Detailed information on doses is provided in Supplemental Material, Table S1 (http://dx.doi.org/10.1289/ehp.1206336). On day 3 after dosing, animals were euthanized by CO2/O2 asphyxiation, and blood was immediately collected from the abdominal aorta. The liver, thymus, spleen, and adipose tissue were removed, weighed (liver, thymus, and spleen), snap frozen, and stored at –80°C. All animal treatments were performed with permission of the Animal Ethical Committee (DEC Utrecht) and performed according to the [Law on Animal Experiments (1977)]. Animals were treated humanely and with regard for alleviation of suffering.
EROD activity. We determined hepatic CYP1A1 activity using ethoxyresorufin-O-deethylase (EROD) activity in hepatic microsomal fractions as described by [Schulz et al. (2012)].
(§2) Data analysis. We obtained concentration–response curves using a sigmoidal dose–response nonlinear regression curve fit with variable slope (GraphPad Prism 6.01; GraphPad Software Inc., San Diego, CA, USA):
(§3) In this Hill equation, y is the dependent variable (EROD activity or fold induction of mRNA levels), x the independent variable (administered or systemic dose), E0 is the estimated background response level, Emax is the maximum response, b is the estimated median effective concentration (EC50), and n is the shaping parameter of the Hill curve.
(§4) Using the congener-specific BMR20TCDD concentration, REPs were calculated relatively to TCDD: […]

Row | Compound | BMR20TCDD Liver EROD activity
1 | Clc1ccc(-c2cc(Cl)c(Cl)c(Cl)c2Cl)cc1Cl [PCB-156, 2,3,3´,4,4´,5-hexachlorobiphenyl] | 15,664 µg/kg BW
2 | Clc1cc2c(cc1Cl)Oc1cc(Cl)c(Cl)cc1O2 [TCDD, 2,3,7,8-tetrachlorodibenzodioxin, reference compound] | 0.29 µg/kg BW

same assay, conditions: dose metric Syst adipose; 3 days after single oral dose

Row | Compound | BMR20TCDD Liver EROD activity
3 | Clc1ccc(-c2cc(Cl)c(Cl)c(Cl)c2Cl)cc1Cl [PCB-156, 2,3,3´,4,4´,5-hexachlorobiphenyl] | 82,483 ng/g lipid
4 | Clc1cc2c(cc1Cl)Oc1cc(Cl)c(Cl)cc1O2 [TCDD, 2,3,7,8-tetrachlorodibenzodioxin, reference compound] | 1.23 ng/g lipid

same assay, conditions: dose metric Syst plasma; 3 days after single oral dose

Row | Compound | BMR20TCDD Liver EROD activity
5 | Clc1ccc(-c2cc(Cl)c(Cl)c(Cl)c2Cl)cc1Cl [PCB-156, 2,3,3´,4,4´,5-hexachlorobiphenyl] | 98,188 ng/g lipid
6 | Clc1cc2c(cc1Cl)Oc1cc(Cl)c(Cl)cc1O2 [TCDD, 2,3,7,8-tetrachlorodibenzodioxin, reference compound] | 1.38 ng/g lipid

same assay, conditions: relative to TCDD; dose metric Adm dose (µg/kg BW)

Row | Compound | REP Liver EROD activity
7 | Clc1ccc(-c2cc(Cl)c(Cl)c(Cl)c2Cl)cc1Cl [PCB-156, 2,3,3´,4,4´,5-hexachlorobiphenyl] | 0.00002
8 | Clc1cc2c(cc1Cl)Oc1cc(Cl)c(Cl)cc1O2 [TCDD, 2,3,7,8-tetrachlorodibenzodioxin, reference compound] | 1

same assay, conditions: relative to TCDD; dose metric Syst adipose (ng/g lipid)

Row | Compound | REP Liver EROD activity
9 | Clc1ccc(-c2cc(Cl)c(Cl)c(Cl)c2Cl)cc1Cl [PCB-156, 2,3,3´,4,4´,5-hexachlorobiphenyl] | 0.00001
10 | Clc1cc2c(cc1Cl)Oc1cc(Cl)c(Cl)cc1O2 [TCDD, 2,3,7,8-tetrachlorodibenzodioxin, reference compound] | 1

same assay, conditions: relative to TCDD; dose metric Syst liver (ng/g lipid)

Row | Compound | REP Liver EROD activity
11 | Clc1ccc(-c2cc(Cl)c(Cl)c(Cl)c2Cl)cc1Cl [PCB-156, 2,3,3´,4,4´,5-hexachlorobiphenyl] | 0.0002
12 | Clc1cc2c(cc1Cl)Oc1cc(Cl)c(Cl)cc1O2 [TCDD, 2,3,7,8-tetrachlorodibenzodioxin, reference compound] | 1

same assay, conditions: relative to TCDD; dose metric Syst liver (ng/g liver)

Row | Compound | REP Liver EROD activity
13 | Clc1ccc(-c2cc(Cl)c(Cl)c(Cl)c2Cl)cc1Cl [PCB-156, 2,3,3´,4,4´,5-hexachlorobiphenyl] | 0.0002
14 | Clc1cc2c(cc1Cl)Oc1cc(Cl)c(Cl)cc1O2 [TCDD, 2,3,7,8-tetrachlorodibenzodioxin, reference compound] | 1

same assay, conditions: relative to TCDD; dose metric Syst plasma (ng/g lipid)

Row | Compound | REP Liver EROD activity
15 | Clc1ccc(-c2cc(Cl)c(Cl)c(Cl)c2Cl)cc1Cl [PCB-156, 2,3,3´,4,4´,5-hexachlorobiphenyl] | 0.00001
16 | Clc1cc2c(cc1Cl)Oc1cc(Cl)c(Cl)cc1O2 [TCDD, 2,3,7,8-tetrachlorodibenzodioxin, reference compound] | 1

test system: Cyp1a2 mRNA in liver; experiment: Cyp1a2 gene expression in liver (real-time PCR); format: in vivo, female C57BL/6 mice; details: dose metric Adm dose; 3 days after single oral dose
Description: as §1
(§5) RNA isolation and quantitative real-time polymerase chain reaction (PCR). Total RNA was isolated from liver and PBLs using a QIAGEN RNeasy kit (QIAGEN). Purity and concentration of the isolated RNA was determined by measuring the absorbance ratio at 260/280 nm and 230/260 nm with a Nanodrop 2000 spectrophotometer (Thermo Scientific, Asheville, NC, USA). RNA was reverse transcribed to complementary DNA (cDNA) using the iScript cDNA synthesis Kit (Bio-Rad, Veenendaal, the Netherlands). Quantitative real-time PCR analyses were performed using the iQ Real-Time PCR Detection System with SYBR green (Bio-Rad). Amplification reactions were set up with […] containing 12.5 μL iQ SYBR Green Supermix (Bio-rad), 0.5 μL distilled H2O, 1 μL (10 μM) forward primer, 1 μL (10 μM) reverse primer, and 10 μL first strand cDNA (10X diluted). Primer sequences were as follows: Cyp1a1: forward-5´-GGTTAACCATGACCGGGAACT-3´ and reverse-5´-TGCCCAAACCAAAGAGAGTGA-3´ ([Schulz et al. 2012]); Cyp1a2: forward-5´-ACATTCCCAAGGAGCGCTGTATCT-3´ and reverse-5´-GTCGATGGCCGAGTTGTTATTGGT-3´ ([Flaveny et al. 2010]); Cyp1b1: forward-5´-GTGGCTGCTCATCCTCTTTACC-3´ and reverse-5´-CCCACAACCTGGTCCAACTC-3´ ([Berge et al. 2004]); β-actin: forward-5´-ATGCTCCCCGGGCTGTAT-3´ and reverse-5´-CATAGGAGTCCTTCTGACCCATTC-3´ ([Schulz et al. 2012]). All primers were run through the National Center for Biotechnology Information Primer-BLAST database (http://www.ncbi.nlm.nih.gov/tools/primer-blast/) to confirm specificity and validate for optimal annealing temperature (60°C for all primers) and efficiency. The efficiency of all primer pairs was 98–102% (tested at 60°C). The following program was used for denaturation and amplification of cDNA: 3 min at 95°C, followed by 40 cycles of 15 sec at 95°C and 45 sec at 60°C. Gene expression for each sample was expressed as threshold cycle (Ct), normalized to the reference gene β-actin (ΔCt). We calculated fold induction relative to the control group.
as §2, §3, §4

Row | Compound | BMR20TCDD Liver Cyp1a2 mRNA
17 | Clc1ccc(-c2cc(Cl)c(Cl)c(Cl)c2Cl)cc1Cl [PCB-156, 2,3,3´,4,4´,5-hexachlorobiphenyl] | 12,085 µg/kg BW
18 | Clc1cc2c(cc1Cl)Oc1cc(Cl)c(Cl)cc1O2 [TCDD, 2,3,7,8-tetrachlorodibenzodioxin, reference compound] | 0.41 µg/kg BW

same assay, conditions: dose metric Syst adipose; 3 days after single oral dose

Row | Compound | BMR20TCDD Liver Cyp1a2 mRNA
19 | Clc1ccc(-c2cc(Cl)c(Cl)c(Cl)c2Cl)cc1Cl [PCB-156, 2,3,3´,4,4´,5-hexachlorobiphenyl] | 22,134 ng/g lipid
20 | Clc1cc2c(cc1Cl)Oc1cc(Cl)c(Cl)cc1O2 [TCDD, 2,3,7,8-tetrachlorodibenzodioxin, reference compound] | 1.73 ng/g lipid

same assay, conditions: dose metric Syst plasma; 3 days after single oral dose

Row | Compound | BMR20TCDD Liver Cyp1a2 mRNA
21 | Clc1ccc(-c2cc(Cl)c(Cl)c(Cl)c2Cl)cc1Cl [PCB-156, 2,3,3´,4,4´,5-hexachlorobiphenyl] | 60,702 ng/g lipid
22 | Clc1cc2c(cc1Cl)Oc1cc(Cl)c(Cl)cc1O2 [TCDD, 2,3,7,8-tetrachlorodibenzodioxin, reference compound] | 1.85 ng/g lipid

same assay, conditions: relative to TCDD; dose metric Adm dose (µg/kg BW)

Row | Compound | REP Liver Cyp1a2 mRNA
23 | Clc1ccc(-c2cc(Cl)c(Cl)c(Cl)c2Cl)cc1Cl [PCB-156, 2,3,3´,4,4´,5-hexachlorobiphenyl] | 0.00003
24 | Clc1cc2c(cc1Cl)Oc1cc(Cl)c(Cl)cc1O2 [TCDD, 2,3,7,8-tetrachlorodibenzodioxin, reference compound] | 1

same assay, conditions: relative to TCDD; dose metric Syst adipose (ng/g lipid)

Row | Compound | REP Liver Cyp1a2 mRNA
25 | Clc1ccc(-c2cc(Cl)c(Cl)c(Cl)c2Cl)cc1Cl [PCB-156, 2,3,3´,4,4´,5-hexachlorobiphenyl] | 0.00008
26 | Clc1cc2c(cc1Cl)Oc1cc(Cl)c(Cl)cc1O2 [TCDD, 2,3,7,8-tetrachlorodibenzodioxin, reference compound] | 1

same assay, conditions: relative to TCDD; dose metric Syst liver (ng/g lipid)

Row | Compound | REP Liver Cyp1a2 mRNA
27 | Clc1ccc(-c2cc(Cl)c(Cl)c(Cl)c2Cl)cc1Cl [PCB-156, 2,3,3´,4,4´,5-hexachlorobiphenyl] | 0.0003
28 | Clc1cc2c(cc1Cl)Oc1cc(Cl)c(Cl)cc1O2 [TCDD, 2,3,7,8-tetrachlorodibenzodioxin, reference compound] | 1

same assay, conditions: relative to TCDD; dose metric Syst liver (ng/g liver)

Row | Compound | REP Liver Cyp1a2 mRNA
29 | Clc1ccc(-c2cc(Cl)c(Cl)c(Cl)c2Cl)cc1Cl [PCB-156, 2,3,3´,4,4´,5-hexachlorobiphenyl] | 0.0006
30 | Clc1cc2c(cc1Cl)Oc1cc(Cl)c(Cl)cc1O2 [TCDD, 2,3,7,8-tetrachlorodibenzodioxin, reference compound] | 1

same assay, conditions: relative to TCDD; dose metric Syst plasma (ng/g lipid)

Row | Compound | REP Liver Cyp1a2 mRNA
31 | Clc1ccc(-c2cc(Cl)c(Cl)c(Cl)c2Cl)cc1Cl [PCB-156, 2,3,3´,4,4´,5-hexachlorobiphenyl] | 0.00003
32 | Clc1cc2c(cc1Cl)Oc1cc(Cl)c(Cl)cc1O2 [TCDD, 2,3,7,8-tetrachlorodibenzodioxin, reference compound] | 1

test system: Cyp1b1 mRNA in PBLs; experiment: Cyp1b1 gene expression in peripheral blood lymphocytes; format: in vivo, female C57BL/6 mice; details: dose metric Adm dose; 3 days after single oral dose
Description: as §1
Plasma and PBL isolation. Blood from two mice was pooled (total volume of approximately 1.4 mL); plasma and PBLs were then isolated using Ficoll Paque gradient (GE Healthcare Europe, Diegem, Belgium). Plasma samples were stored at –80°C until compound analysis. Isolated lymphocytes were lysed with RLT buffer (QIAGEN, Venlo, the Netherlands) as described in the QIAGEN RNAeasy kit protocol and stored at –80°C until use.
as §5
Data analysis. We obtained concentration–response curves using a sigmoidal dose–response nonlinear regression curve fit with variable slope (GraphPad Prism 6.01; GraphPad Software Inc., San Diego, CA, USA): […]

Row | Compound | BMR20TCDD PBLs Cyp1b1 mRNA [µg/kg BW]
33 | Clc1cc2c(cc1Cl)Oc1cc(Cl)c(Cl)cc1O2 [TCDD, 2,3,7,8-tetrachlorodibenzodioxin, reference compound] | 20.9

same assay, conditions: dose metric Syst plasma; 3 days after single oral dose

Row | Compound | BMR20TCDD PBLs Cyp1b1 mRNA [ng/g lipid]
34 | Clc1cc2c(cc1Cl)Oc1cc(Cl)c(Cl)cc1O2 [TCDD, 2,3,7,8-tetrachlorodibenzodioxin, reference compound] | 53.5

same assay, conditions: relative to TCDD; dose metric Adm dose (µg/kg BW)

Row | Compound | REP PBLs Cyp1b1 mRNA
35 | Clc1cc2c(cc1Cl)Oc1cc(Cl)c(Cl)cc1O2 [TCDD, 2,3,7,8-tetrachlorodibenzodioxin, reference compound] | 1

same assay, conditions: relative to TCDD; dose metric Syst plasma (ng/g lipid)

Row | Compound | REP PBLs Cyp1b1 mRNA
36 | Clc1cc2c(cc1Cl)Oc1cc(Cl)c(Cl)cc1O2 [TCDD, 2,3,7,8-tetrachlorodibenzodioxin, reference compound] | 1

same assay, conditions: single oral dose, day 3

Row | Compound | Effect on Cyp1b1 mRNA in PBLs
37 | Clc1ccc(-c2cc(Cl)c(Cl)c(Cl)c2Cl)cc1Cl [PCB-156, 2,3,3´,4,4´,5-hexachlorobiphenyl] | did not induce
38 | Clc1cc2c(cc1Cl)Oc1cc(Cl)c(Cl)cc1O2 [TCDD, 2,3,7,8-tetrachlorodibenzodioxin, reference compound] | dose-dependently induced
